Laboratory results from US11753445B2, “Therapeutic peptides” (COHBAR, INC., priority 2016, dated 2023).

Columns and labels:
3T3-L1 Adipocytes [1] = experiment: Free fatty acid levels in cultured mouse 3T3-L1 adipocytes, forskolin stimulated (Example 3); format: cell-based; details: forskolin 1 μM; for Free Fatty Acid Levels in 3T3-L1 Adipocytes Expressed as a Percent of Forskolin Control: Percent of Control Value: test peptides 25 μM
Outline: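 Mouse 3T3-L1 cells differentiated 12–17 days, then exposed to test peptides (25 μM) for 18–20 h, fresh peptide 1 h, then 3 h with 1 μM forskolin. Free fatty acids in medium read colorimetrically at 540 nm. Values background-corrected and expressed relative to forskolin-only cells.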

[2] = Stability in mouse plasma, peptides 100 uM (Example 14); format: in vitro ADME; details: mouse plasma 37° C., peptide 100 uM; for remaining at 0.25 h, 100 uM / remaining at 0.5 h, 100 uM / remaining at 1 h, 100 uM / remaining at 2 h, 100 uM / remaining at 3 h, 100 uM: pooled mouse plasma; for remaining at 0.25 h, 100 uM: 15 min, read-out: % Remaining at Each Time Point: 15 min; for remaining at 0.5 h, 100 uM: 30 min, read-out: % Remaining at Each Time Point: 30 min; for remaining at 1 h, 100 uM: 60 min, read-out: % Remaining at Each Time Point: 60 min; for remaining at 2 h, 100 uM: 120 min, read-out: % Remaining at Each Time Point: 120 min; for remaining at 3 h, 100 uM: 180 min, read-out: % Remaining at Each Time Point: 180 min
Experimental: (§1) Peptides (100 uM) were incubated in pooled mouse plasma at 37° C. and samples were removed and immediately analyzed for the concentration of intact peptide by LC/MS/MS over the course of 3 hours. The percent of peptide remaining in plasma at each time point was calculated relative to the initial peak area (Table 12).

[3] = Stability in mouse plasma, peptides 10 uM (Example 15); format: in vitro ADME; details: mouse plasma 37° C., peptide 10 uM; for remaining at 0.25 h, 10 uM / remaining at 0.5 h, 10 uM / remaining at 1 h, 10 uM / remaining at 2 h, 10 uM / remaining at 3 h, 10 uM: pooled mouse plasma; for remaining at 0.25 h, 10 uM: 15 min, read-out: % Remaining at Each Time Point: 15 min; for remaining at 0.5 h, 10 uM: 30 min, read-out: % Remaining at Each Time Point: 30 min; for remaining at 1 h, 10 uM: 60 min, read-out: % Remaining at Each Time Point: 60 min; for remaining at 2 h, 10 uM: 120 min, read-out: % Remaining at Each Time Point: 120 min; for remaining at 3 h, 10 uM: 180 min, read-out: % Remaining at Each Time Point: 180 min
Experimental: as §1, with “(10” for “(100”, “13).” for “12).”

[4] = Stability in monkey plasma (Example 16); format: in vitro ADME; details: Monkey plasma 37° C., peptide 10 uM; for remaining at 1 h, 10 uM: 60 min, read-out: % Remaining at Each Time Point: 60 min; for remaining at 2 h, 10 uM: 120 min, read-out: % Remaining at Each Time Point: 120 min; for remaining at 3 h, 10 uM: 180 min, read-out: % Remaining at Each Time Point: 180 min
[5] = Stability in human plasma (Example 16); format: in vitro ADME; details: Human plasma 37° C., peptide 10 uM; for remaining at 1 h, 10 uM / remaining at 2 h, 10 uM / remaining at 3 h, 10 uM: pooled human plasma; for remaining at 1 h, 10 uM: 60 min, read-out: % Remaining at Each Time Point: 60 min; for remaining at 2 h, 10 uM: 120 min, read-out: % Remaining at Each Time Point: 120 min; for remaining at 3 h, 10 uM: 180 min, read-out: % Remaining at Each Time Point: 180 min
Experimental: as §1, with “(10” for “(100”, “mouse or human” for “mouse”, “14).” for “12).”

3T3-L1 Adipocytes [6] = experiment: Free fatty acid levels in cultured mouse 3T3-L1 adipocytes, isoproterenol stimulated (Example 17); format: cell-based; details: insulin 100 nM; 3T3-L1 adipocytes; isoproterenol 1 nM
Outline: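 Differentiated 3T3-L1 adipocytes (12-17 days) given test peptides at 25-50 μM for 18-20 h, then 3 h with peptides plus 1 nM isoproterenol at 37 °C. Medium free fatty acids read colorimetrically at 540 nm, background-corrected and expressed relative to isoproterenol-only cells.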

With H-RWQEMNYIFYPR-OH [compound 210] the “Free Fatty Acid Levels in 3T3-L1 Adipocytes Expressed as a Percent of Forskolin Control: Percent of Control Value” (3T3-L1 Adipocytes [1]) was 29.2%, the “% Remaining at Each Time Point: 0 min” value [2] was 100% and the remaining at 0.25 h, 100 uM [2] was 56.2%. For the same substance, the remaining at 0.5 h, 100 uM [2] was 44.8%, the remaining at 1 h, 100 uM [2] was 39.6% and the remaining at 2 h, 100 uM [2] was 34.4%. The remaining at 3 h, 100 uM [2] was 41.4%, the “% Remaining at Each Time Point: 0 min” value [3] was 100% and the remaining at 0.25 h, 10 uM [3] was 85.7%. The remaining at 0.5 h, 10 uM [3] was 79.5%, the remaining at 1 h, 10 uM [3] was 61.9% and the remaining at 2 h, 10 uM [3] was 35.4%. For the same substance, the remaining at 3 h, 10 uM [3] was 23%, the “% Remaining at Each Time Point: 0 min” value [4] was 100% and the remaining at 1 h, 10 uM [4] was 105%. For the same substance, the remaining at 2 h, 10 uM [4] was 87.9%, the remaining at 3 h, 10 uM [4] was 77.9% and the “% Remaining at Each Time Point: 0 min” value [5] was 100%. The remaining at 1 h, 10 uM [5] was 106%, the remaining at 2 h, 10 uM [5] was 90.8% and the remaining at 3 h, 10 uM [5] was 95.8%.

For H-MRWQEMNYIFYPR-OH [compound 208], the “Free Fatty Acid Levels in 3T3-L1 Adipocytes Expressed as a Percent of Forskolin Control: Percent of Control Value” (3T3-L1 Adipocytes [1]) was 62.4%, the “% Remaining at Each Time Point: 0 min” value [2] was 100% and the remaining at 0.25 h, 100 uM [2] was 63.3%. It also gave a remaining at 0.5 h, 100 uM [2] of 53.1%, a remaining at 1 h, 100 uM [2] of 48.9% and a remaining at 2 h, 100 uM [2] of 45.3%. For the same substance, the remaining at 3 h, 100 uM [2] was 47.7%, the “% Remaining at Each Time Point: 0 min” value [3] was 100% and the remaining at 0.25 h, 10 uM [3] was 77%. It also gave a remaining at 0.5 h, 10 uM [3] of 51.8%, a remaining at 1 h, 10 uM [3] of 21% and a remaining at 2 h, 10 uM [3] of 3.94%. The remaining at 3 h, 10 uM [3] was 1.09%, the “% Remaining at Each Time Point: 0 min” value [4] was 100% and the remaining at 1 h, 10 uM [4] was 106%. The remaining at 2 h, 10 uM [4] was 89%, the remaining at 3 h, 10 uM [4] was 68% and the “% Remaining at Each Time Point: 0 min” value [5] was 100%. The remaining at 1 h, 10 uM [5] was 105%, the remaining at 2 h, 10 uM [5] was 86.6% and the remaining at 3 h, 10 uM [5] was 85.4%.

In the case of H-MRWQEMGYIFYPRNLR-OH [compound 213], the “Free Fatty Acid Levels in 3T3-L1 Adipocytes Expressed as a Percent of Forskolin Control: Percent of Control Value” (3T3-L1 Adipocytes [1]) is reported as 36.0%, the “% Remaining at Each Time Point: 0 min” value [2] is reported as 100% and the remaining at 0.25 h, 100 uM [2] is reported as 41%. It also gave a remaining at 0.5 h, 100 uM [2] of 29.4%, a remaining at 1 h, 100 uM [2] of 20.5% and a remaining at 2 h, 100 uM [2] of 10%. It also gave a remaining at 3 h, 100 uM [2] of 7.45%.

For H-MRWQEMQYIFYPRALR-OH [compound 219], the “Free Fatty Acid Levels in 3T3-L1 Adipocytes Expressed as a Percent of Forskolin Control: Percent of Control Value” (3T3-L1 Adipocytes [1]) was 41.5%, the “% Remaining at Each Time Point: 0 min” value [2] was 100% and the remaining at 0.25 h, 100 uM [2] was 44.5%. The remaining at 0.5 h, 100 uM [2] was 40.9%, the remaining at 1 h, 100 uM [2] was 41.3% and the remaining at 2 h, 100 uM [2] was 19.8%. For the same substance, the remaining at 3 h, 100 uM [2] was 12.2%.

For H-MRWQEMGYIFYPRKLR-OH [compound 2], the “Free Fatty Acid Levels in 3T3-L1 Adipocytes Expressed as a Percent of Forskolin Control: Percent of Control Value” (3T3-L1 Adipocytes [1]) was 59.2%, the “% Remaining at Each Time Point: 0 min” value [2] was 100% and the remaining at 0.25 h, 100 uM [2] was 32%. For the same substance, the remaining at 0.5 h, 100 uM [2] was 14.8%, the remaining at 1 h, 100 uM [2] was 7.58% and the remaining at 2 h, 100 uM [2] was 4.78%. For the same substance, the remaining at 3 h, 100 uM [2] was 1.21%, the “% Remaining at Each Time Point: 0 min” value [3] was 100% and the remaining at 0.25 h, 10 uM [3] was 78.3%. The remaining at 0.5 h, 10 uM [3] was 38.9%, the remaining at 1 h, 10 uM [3] was 9.6% and the remaining at 2 h, 10 uM [3] was 0.8%. The remaining at 3 h, 10 uM [3] was 0.4%, the “% Remaining at Each Time Point: 0 min” value [4] was 100% and the remaining at 1 h, 10 uM [4] was 72.8%. The remaining at 2 h, 10 uM [4] was 39.8%, the remaining at 3 h, 10 uM [4] was 23.4% and the “% Remaining at Each Time Point: 0 min” value [5] was 100%. It also gave a remaining at 1 h, 10 uM [5] of 56.3%, a remaining at 2 h, 10 uM [5] of 44.7% and a remaining at 3 h, 10 uM [5] of 38.4%.

For H-RWQEMQYIFYPR-OH [compound 211], the “Free Fatty Acid Levels in 3T3-L1 Adipocytes Expressed as a Percent of Forskolin Control: Percent of Control Value” (3T3-L1 Adipocytes [1]) was 33.7%, the “% Remaining at Each Time Point: 0 min” value [3] was 100% and the remaining at 0.25 h, 10 uM [3] was 85.2%. It also gave a remaining at 0.5 h, 10 uM [3] of 72.8%, a remaining at 1 h, 10 uM [3] of 52.3% and a remaining at 2 h, 10 uM [3] of 30.3%. It also gave a remaining at 3 h, 10 uM [3] of 17.9%.

In the case of H-MRWQEMGYIFYPRKLA-OH [compound 21], the “Free Fatty Acid Levels in 3T3-L1 Adipocytes Expressed as a Percent of Forskolin Control: Percent of Control Value” (3T3-L1 Adipocytes [1]) is reported as 56.0%, the “% Remaining at Each Time Point: 0 min” value [2] is reported as 100% and the remaining at 0.25 h, 100 uM [2] is reported as 29.9%. For the same substance, the remaining at 0.5 h, 100 uM [2] was 31%, the remaining at 1 h, 100 uM [2] was 21.5% and the remaining at 2 h, 100 uM [2] was 6.41%. The remaining at 3 h, 100 uM [2] was 2.13%.

In the case of Insulin [reference compound], the “Free fatty acid levels, % of the forskolin control value” (3T3-L1 Adipocytes [1]; insulin 100 nM, 3T3-L1 adipocytes) is reported as less than 9% and the “Free fatty acid levels, % of the isoproterenol control value” (3T3-L1 Adipocytes [6]) is reported as less than 5%.
